In patent US20160279043A1, “COMBINATIONS OF N-ACETYL CYSTEINE DERIVATIVES AND CRANBERRY POLYPHENOLS IN COMPOSITIONS AND METHODS FOR PREVENTING AND TREATING PERIODONTAL DISEASES AND PERI-IMPLATITIS” (DENTALMED PHARM HOLDING LTD., priority 2013, published 2016):
Entries after “also recorded” stand apart in the source; their conditions may differ.

Legend:
[1] = tested on: Aggregibcater actynomycetemcomitans; experiment: Pre-formed biofilm challenge, MBEC P&G assay, LOG10 reduction; format: cell-based, Aggregibcater actynomycetemcomitans (ATCC 43717)
Description: (§1) Sterile MBEC™ P&G plates coated with Hydroxyapatite were used for biofilm growth. The plates consist of plastic lids with 96 protruding polystyrene pegs that have each been coated with hydroxyapatite and a corresponding 96 well base into which the inoculum is placed. The bacterial inoculum for each plate is 150 μL in each well (Innovotech Inc., Edmonton, Alberta, Canada).
(§2) Using a cryogenic stock (at −70° C.), a first sub-culture of the bacterial organisms listed above was streaked out on an organism specific agar (OSA). The bacterium was incubated at appropriate growth conditions for 24-48 hours and the plate was stored wrapped in parafilm at 4° C. for the aerobic strain (Aggregibcater actynomycetemcomitans) and 21° C. in the anaerobic chamber for anaerobic strain (Porphyromonas gingivalis). From the first sub-culture, a second sub-culture was streaked out on OSA. It was incubated at appropriate growth conditions for 24-48 hours. The second sub-culture was used within 24 hours starting from the time it was first removed from incubation. Using the second sub-culture, an isolated colony was aseptically removed from the OSA plate and inoculated into 100 mL of sterile bacterial liquid growth broth. The latter was incubated at 150 rpm at appropriate growth conditions for 24-24 hour. This yielded a viable bacterial density of approximately 10^9 CFU/mL and was checked by serial dilution and plating. The inoculum was adjusted to an approximate cell density of 10^6 CFU/mL by diluting in organism specific broth (OSB). The diluted organism was vortexed for approximately 10 seconds to achieve uniform mixing of the organism. One sample (100 μL) of the diluted organism was used for an inoculum check by serially diluting and spot plating on OSA in triplicate. It should be noted that for the anaerobic microorganism, growth, sonication, serial dilution, transfer and recovery of the organism was performed under anaerobic conditions (5% H2, 10% CO2, 85% N2).
(§3) Each bacterial over-night culture was diluted 1,000× in its specific OSM. Using a micro pipette, 150 μL of inoculum was added to the appropriate wells of a 96 well plate, except for wells that served as sterility controls (SC). Sterility control wells received sterile OSB. The HA MBEC™ P&G lid was then inserted into the 96-well bottom. It should be noted that the volume of inoculum used in this step has been calibrated such that the biofilm covers a surface area that is immersed, entirely, by the volume of antimicrobials used in the challenge plate set up. The device was placed on the gyrorotary shaker in a humidified incubator and incubated at 110 rpm at the appropriate growth conditions. Porphyromonas gingivalis was incubated for 24 hours, and Aggregibcater actynomycetemcomitans was incubated for 48 hours. A triplicate sample of the inoculum was serially diluted (ten-fold). The latter served as controls used to verify the starting cell number in the inoculum. The serial 10-fold dilutions of the inoculum from 10^−7 to 10^0 were spot plated on an appropriately labeled series of agar plates. The spot plates were incubated for an appropriate period of time and scored for growth.
(§4) The biofilm growth check (GCh) pegs were broken off from the challenge plate with flamed pliers. Each peg was placed into 200 μL of neutralizer in row A of serial dilution plate. The plates were sonicated for 30 minutes. Then serial dilution and spot plating on OSA was performed, which served as a biofilm growth check.
(§5) Biofilms were tested using the specified contact times. Callenge plates were used for testing the killing activity of the tested biocidic compounds on formed biofilm and other plates to test the inhibitory effect of biofilm formation. SC wells served as sterility controls for each experiment. One challenge plate was used per growth condition and challenge time. GC is the growth control. GCh is the biofilm Growth Check. […]

Porphyromonas gingivalis [2] = experiment: as above; format: cell-based, Porphyromonas gingivalis (ATCC 33277)
Description: as §1, §2, §3, §4, §5

[3] = tested on: Aggregibcater actynomycetemcomitans; experiment: Growth inhibition, LOG10 reduction; format: cell-based, Aggregibcater actynomycetemcomitans (ATCC 43717)
Description: as §2
(§6) Biofilms were tested using the specified contact times. Callenge plates were used for testing the killing activity of the tested biocidic compounds on formed biofilm and other plates to test the inhibitory effect of biofilm formation. SC wells served as sterility controls for each experiment. One challenge plate was used per growth condition and challenge time. GC is the growth control. GCh is the biofilm Growth Check.
(§7) Using a sterile 96-well microtitre plate the following was done aseptically to set up the above challenge plates. 200 μL of sterile OSM was added to wells that served as the device sterility control for the media and for biofilm growth checks. 200 μL of sterile neutralizer was added to wells that served as the neutralizer toxicity control. 100 μL of the neutralizer and 100 μL of each of the tested compounds or combinations were added to wells serving as neutralizer affectivity control. 200 μL of biocide stock solution was added to wells which served as the biocide diluent sterility control. Serial dilutions of the tested compounds and combinations in the diluents (OSM) were performed. Each freshly prepared challenge plate was aseptically covered and left to stand at room temperature for 30 minutes to equilibrate prior to use.
(§8) Following sonication of all plates, 100 μL was placed from each well of the MBEC™ plate into the first 12 empty wells of the first row of a 96 well-micro titer plate. 180 μL of sterile 0.9% saline were placed in the remaining rows. A Serial dilution (10^0-10^−7) was performed by moving 20 μL down each of the 8 rows. 10 μL were removed from each well and spot plated on prepared OSA plates. Plates were incubated at 37±1° C. and counted after approximately 24-48 hours of incubation. The data obtained was evaluated as Log 10 CFU/peg. 100 μL of the sterile neutralizer were placed in each well of the recovery plate to top up the volume back to 200 μL.
(§9) LOG10 Reduction=Mean LOG10 Growth Control−Mean LOG10 Test.

Porphyromonas gingivalis [4] = experiment: Growth inhibition, LOG10 reduction; format: cell-based, Porphyromonas gingivalis (ATCC 33277)
Description: as §2, §6, §7, §8, §9

[5] = tested on: Aggregibcater actynomycetemcomitans; experiment: Planktonic MIC; format: cell-based, Aggregibcater actynomycetemcomitans (ATCC 43717); settings: Compound A alone; 24 hours
Description: (§10) The MIC (minimum inhibitory concentration) for the compound was determined for each organism shed from the biofilm during the challenge incubation. The MIC was defined as the minimum concentration that inhibits growth of the organism.

Porphyromonas gingivalis [6] = experiment: Planktonic MIC; format: cell-based, Porphyromonas gingivalis (ATCC 33277); settings: Compound A alone; 24 hours
Description: as §10

[7] = tested on: Aggregibcater actynomycetemcomitans; experiment: Planktonic minimum bactericidal concentration (MBC); format: cell-based, Aggregibcater actynomycetemcomitans (ATCC 43717); settings: Compound A alone; 24 hours contact
Description: (§11) After the specified contact time (24 hours), 20 μL from each well of the challenge plate were removed and placed into the corresponding wells of a fresh 96 well Nunc plate containing 180 μL OSM. The plate was incubated at 37° C. for 24 hours.

Porphyromonas gingivalis [8] = experiment: as above; format: cell-based, Porphyromonas gingivalis (ATCC 33277); settings: Compound A alone; 24 hours contact
Description: as §11

[9] = tested on: Aggregibcater actynomycetemcomitans; experiment: Biofilm MBEC; format: cell-based, Aggregibcater actynomycetemcomitans (ATCC 43717); settings: Compound A alone
Description: (§12) MBEC is defined as the minimum concentration of test compound that inhibits growth of the biofilm. The recovery plate prepared according to the description above was incubated at 37° C. for 24 hours and read visually to determine MBEC values. A microtiter plate reader was used to obtain optical density measurements at 630 nm (OD630). Clear wells (OD630<0.1) ware evidence of biofilm eradication.

Porphyromonas gingivalis [10] = experiment: Biofilm MBEC; format: cell-based, Porphyromonas gingivalis (ATCC 33277); settings: Compound A alone
Description: as §12

[11] = Compound A, all tested concentrations

MIC Cut-off, A.a. [5]: 10%
MIC Cut-off, P. gingivalis (Porphyromonas gingivalis [6]): >20%
SMILES: CC(=O)N[C@@H](CS)C(=O)O [Compound A, N-acetyl cysteine]
Log Reduction, Biofilm, A.a. ([1]; Compound A 0.15%): 0.51 log
Log Reduction, Biofilm, A.a. ([1]; Compound A 0.31%): −0.02 log
Log Reduction, Biofilm, A.a. ([1]; Compound A 0.62%): 0.23 log
Log Reduction, Biofilm, A.a. ([1]; Compound A 1.25%): 0.36 log
Log Reduction, Biofilm, A.a. ([1]; Compound A 2.50%): −0.01 log
Log Reduction, Biofilm, A.a. ([1]; Compound A 5%): 0.39 log
Log Reduction, Biofilm, A.a. ([1]; Compound A 10%): 3.02 log
Log Reduction, Biofilm, A.a. ([1]; Compound A 20%): 3.25 log
Log Reduction, Biofilm, P. gingivalis (Porphyromonas gingivalis [2]; Compound A 0.15%): 0.11 log
Log Reduction, Biofilm, P. gingivalis (Porphyromonas gingivalis [2]; Compound A 0.31%): 0.07 log
Log Reduction, Biofilm, P. gingivalis (Porphyromonas gingivalis [2]; Compound A 0.62%): −0.07 log
Log Reduction, Biofilm, P. gingivalis (Porphyromonas gingivalis [2]; Compound A 1.25%): −0.18 log
Log Reduction, Biofilm, P. gingivalis (Porphyromonas gingivalis [2]; Compound A 2.50%): 0.13 log
Log Reduction, Biofilm, P. gingivalis (Porphyromonas gingivalis [2]; Compound A 5%): −0.18 log
Log Reduction, Biofilm, P. gingivalis (Porphyromonas gingivalis [2]; Compound A 10%): −0.17 log
Log Reduction, Biofilm, P. gingivalis (Porphyromonas gingivalis [2]; Compound A 20%): 0.13 log
Reducing preformed biofilm of P. gingivalis (in words) (Porphyromonas gingivalis [2]; [11]): ineffective; also recorded: No inhibition or biofilm reduction
Log Reduction, Growth Inhibition, A.a. ([3]; Compound A 0.15%): 0.24 log
Log Reduction, Growth Inhibition, A.a. ([3]; Compound A 0.31%): 0.28 log
Log Reduction, Growth Inhibition, A.a. ([3]; Compound A 0.62%): 0.74 log
Log Reduction, Growth Inhibition, A.a. ([3]; Compound A 1.25%): 1.04 log
Log Reduction, Growth Inhibition, A.a. ([3]; Compound A 2.50%): 1.13 log
Log Reduction, Growth Inhibition, A.a. ([3]; Compound A 5%): 2.05 log
Log Reduction, Growth Inhibition, A.a. ([3]; Compound A 10%): 6.34 log
Log Reduction, Growth Inhibition, A.a. ([3]; Compound A 20%): 6.34 log
Inhibiting growth of A.a. (in words) ([3]; Compound A, only at 20% and 10% of the stock concentration): effective at inhibiting growth
Log Reduction, Growth Inhibition, P. gingivalis (Porphyromonas gingivalis [4]; Compound A 0.15%): −0.89 log
Log Reduction, Growth Inhibition, P. gingivalis (Porphyromonas gingivalis [4]; Compound A 0.31%): −0.05 log
Log Reduction, Growth Inhibition, P. gingivalis (Porphyromonas gingivalis [4]; Compound A 0.62%): 0.35 log
Log Reduction, Growth Inhibition, P. gingivalis (Porphyromonas gingivalis [4]; Compound A 1.25%): 0.44 log
Log Reduction, Growth Inhibition, P. gingivalis (Porphyromonas gingivalis [4]; Compound A 2.50%): 0.11 log
Log Reduction, Growth Inhibition, P. gingivalis (Porphyromonas gingivalis [4]; Compound A 5%): −0.19 log
Log Reduction, Growth Inhibition, P. gingivalis (Porphyromonas gingivalis [4]; Compound A 10%): −0.71 log
Log Reduction, Growth Inhibition, P. gingivalis (Porphyromonas gingivalis [4]; Compound A 20%): 0.36 log
Inhibiting growth of P. gingivalis (in words) (Porphyromonas gingivalis [4]; [11]): ineffective; also recorded: No inhibition
MBC Cut-off, A.a. [7]: >20%
MBC Cut-off, P. gingivalis (Porphyromonas gingivalis [8]): >20%
MBEC Cut-off, A.a. [9]: >20%
MBEC Cut-off, P. gingivalis (Porphyromonas gingivalis [10]): >20%
